Source: patent publication US11690828B2, “Treatment of CNS diseases with sGC stimulators” (Cyclerion Therapeutics, Inc., priority 2016, dated 2023)

Tests used:
rats [1] = test: Carrageenan - paw pressure test; assay type: in vivo, rat; settings: Compound I-2 p.o. 10 mg/kg; 120 minutes after treatment
Procedure: (§1) Paw Pressure Test. Static mechanical hyperalgesia is measured. This test requires the application of an increasing pressure on the hind paws between a flat surface and a blunt pointer. To evaluate the analgesic action of a compound, one hind paw of the animal was inflamed by an injection or injured by ligation, while the other hind paw was not injured or inflamed. The apparatus exerted a steadily increasing force on the hind paws. The reaction threshold was determined as the pressure (g) required to elicit paw withdrawal and/or vocalization. The animals were gently handled by the experimenter and static mechanical hyperalgesia were assessed two times for both hind paws.
Carrageenan. Induction: Three hours before assessment of the nociceptive threshold using the paw pressure test 100 μL of a 2% carrageenan suspension was injected into the plantar aspect of the right hind paw. The Paw Pressure test was then conducted as described above.
(§2) Testing: 120 minutes after treatment. N=4/model/test. Results are expressed for each group as a percentage of activity calculated from the mean value of the vehicle-treated animals and compared to naïve animals, control paw, or cut-off value, depending on the test.

rats [2] = test: Acetic acid test - abdominal cramps; assay type: in vivo, rat; settings: Compound I-2 p.o. 10 mg/kg; 120 minutes after treatment
Procedure: Acetic Acid Test. Abdominal contraction was induced by intraperitoneal injection of 0.6% acetic acid solution in rats (10 mL/kg). The number of writhing (a twisting or contorting of the body due to pain) was recorded from the 5th to the 15th minute after injection.
as §2

rats [3] = test: Bennett model - paw pressure test; assay type: in vivo, rat; settings: Compound I-2 p.o. 10 mg/kg; 120 minutes after treatment
Procedure: as §1
Bennett Model. Peripheral mononeuropathy was induced by loose ligation of the sciatic nerve in anesthetized rats (Xylazine 10 mg/kg i.p., ketamine 60 mg/kg i.p.) on D−14. Briefly, the common sciatic nerve was exposed at the level of the middle of the thigh by blunt dissection through the biceps femoris. Proximal to the sciatic trifurcation, four ligatures were loosely tied around it with about 1-mm spacing. […]
Testing: 120 minutes after treatment. […] Results are expressed for each group as a percentage of activity calculated from the mean value of the vehicle-treated animals and compared to naïve animals, control paw, or cut-off value, depending on the test.

rats [4] = test: Formalin test - score; assay type: in vivo, rat; settings: Compound I-2 p.o. 10 mg/kg; 120 minutes after treatment
Procedure: Formalin Test. 2.5% formalin solution was injected by subplantar route into the right hind paw. Scoring of pain behavior was performed in rats for 36 minutes every 3 minutes according to the following scores:
0=normal behavior of the injected hind limb to support the body
1=slight touching of the injected paw on the floor to lightly support or not support the body
2=total withdrawal of the injected paw
3=licking, biting or shaking of the injected paw.
as §2

BDNF = test: Effect on BDNF protein in the rat dorsal striatum, quinolinic acid lesion model; assay type: in vivo; settings: 10 mg/kg once a day for 7 days
Procedure: Protocol. Experimental day 1: Rats were deeply anesthetized with isoflurane and each rat received a unilateral infusion of 0.25 μl of 50 mM quinolinic acid (QA) in the dorsal striatum (12.5 nmoles of QA on the left or right hemisphere). The dorsal striatum contralateral to the QA infusion on each rat received a control infusion of 0.25 μl PBS (control side). Some animals were dosed S.C. with vehicle (n=5) or 10 mg/Kg Compound I-2 (n=6) about 30 minutes after QA infusion. Experimental days 2-8: Rats were dosed every 24 h P.O. with Vehicle or 10 mg/Kg Compound I-2. About 24 h after the last dosing of vehicle or Compound I-2, rats were anesthetized, perfused with PBS followed by perfusion with 4% Paraformaldehyde in PBS; brain tissue was collected and placed in a falcon tube covered with 4% Paraformaldehyde (PAF) in PBS for about 14 h at 4° C. and then replaced by PBS with 30% sucrose solution for about 48 h. Brain tissue was cut in 40 μm coronal slices and stored in PBS at 4° C. […] Images from the dorsomedial area around the QA lesion or equivalent area on the control hemisphere were taken using confocal fluorescence microscopy. Images were analyzed using imageJ software to determine the average BDNF intensity in NeuN positive cells.

[5] = test system: R6/2 mice hippocampal slices; test: Synaptic transmission and plasticity (LTP) in R6/2 mice hippocampal slices; assay type: cell-based, mouse
Procedure: Preparation of acute mice hippocampal slices. Experiments were carried out with 11 to 12 week-old R6/2 and WT mice provided by the Jackson Laboratory (USA). Hippocampal slices (350 μm thickness) were cut with a Macllwain tissue chopper in an ice-cold oxygenated sucrose solution (Saccharose 250, Glucose 11, NaHCO3 26, KCl 2, NaH2PO4 1.2, MgCl2 7, and CaCl2 0.5 in mM). The slices were incubated 1 hour at room temperature in ACSF of the following composition: Glucose 11, NaHCO3 25, NaCl 126, KCl 3.5, NaH2PO4 1.2, MgCl2 1.3, and CaCl2 2 in mM. Then, the slices were let to recover for at least 1 h.
Slice perfusion and temperature control. During the experiments, the slices were continuously perfused with the ACSF (bubbled with 95% O2-5% CO2) at the rate of 3 mL/min with a peristaltic pump (MEA chamber volume: ˜1 mL). Complete solution exchange in the MEA chamber was achieved 20 s after the switch of solutions. The perfusion liquid was continuously pre-heated at 37° C. just before reaching the MEA chamber with a heated-perfusion cannula (PH01, MultiChannel Systems, Reutlingen, Germany). The temperature of the MEA chamber was maintained at 37±0.1° C. with a heating element located in the MEA amplifier headstage.
Input/Output (I/O) curve: from 100 to 800 μA, by 100 μA steps. The stimulus intensity was then set to a fixed value of 250 μA for the short- and long-term synaptic plasticity measurements.
Short-term plasticity properties: two pulses with a decreasing inter-stimuli interval (e.g. 300 ms, 200 ms, 100 ms, 50 ms, 25 ms) were applied. Compound application: fEPSP were recorded for 10 minutes in control conditions (to verify the baseline steadiness) followed by a 15-minute exposure to the compound (or 25 minutes in the presence of vehicle only for control slices). A second I/O protocol and paired-pulse protocol were applied, as described previously, in the continuous presence of the compound.
Long-Term Potentiation (LTP): Following a 10-minute control period (in the presence of the compound or vehicle for control slices), LTP was induced by a 10×TBS. Potentiation of synaptic transmission was then monitored for an additional 60-minute period (in the continuous presence of the compound or vehicle for control slices).

[6] = 855 nM, R6/2 hippocampal slices

Structure (SMILES)	% of activity vs. vehicle, carrageenan paw pressure test (rats [1]) [%]	% of activity vs. vehicle, acetic acid test abdominal cramps (rats [2]) [%]	% of activity vs. vehicle, Bennett model paw pressure test (rats [3]) [%]	% of activity vs. vehicle, formalin test score (early phase) (rats [4]) [%]	% of activity vs. vehicle, formalin test score (late phase) (rats [4]) [%]	BDNF averaged intensity in NeuN positive cells around the QA lesion, as compared to vehicle treatment (BDNF)	BDNF averaged intensity in NeuN positive cells in the dorsomedial striatum without a lesion (control side), as compared to vehicle treatment (BDNF)	Potentiation in R6/2 slices compared to R6/2 control slices ([5]; 855 nM)	fEPSP amplitude (basal synaptic transmission) ([5]; 855 nM for 15 minutes, R6/2 hippocampal slices)	I/O characteristics [5, 6]	Paired-pulse properties [5, 6]	LTP: fEPSP increase at endpoint after HFS ([5]; 855 nM, R6/2 hippocampal slices, WT control 36±3%, R6/2 control 15±2%) [%]
Fc1ccccc1Cn1nc(-c2nc(C(F)(F)F)n[nH]2)c2cccnc21 [Compound I-2]	75	59	65	61	11	increase	increase	–	–	–	–	–
FC(F)(F)c1n[nH]c(-c2nc(Cc3cncnc3)c3ccccn23)n1 [Compound I-5]	–	–	–	–	–	–	–	significantly increased	did not modify	significantly higher	significantly increased	40±6
